Experimental data from US7169785B2, “Methods and compositions of novel triazine compounds” (Reddy US Therapeutics, Inc., priority 2001, dated 2007).
Read-outs that look alike come from different tables or passages of the source.

Key:
cells = assay: Cytotoxicity / lactate dehydrogenase assay and visual observation of cells; assay type: cell-based; details: 10 uM
Procedure: Assays for determining the activity of compounds capable of cytotoxic activity include those taught in herein and others that are well known in the art. In general, to determine if there is cytotoxic activity associated with a compound, cells of a particular type, in a growing stage or a quiescient stage, are treated with the compound of interest. Various parameters of cell death or cessation are used to measure the effects of the compound. For example, the amount of nucleic acid or protein synthesis can be measured or visual observation of the state of the cells, such as release from the substrate, can be used to measure the state of the cells.
An appropriate number of cells are plated in four 96-well plates, one plate for “day 0” and three plates for days 1–3. Cells are treated with at least one compound of the present invention in varying concentrations with and without the apoptosis inducer cisplatin (2 μM) (“+cis” or “−cis”). Unteated cells are also assayed with and without cisplatin. After transfection, the plates are incubated at 37° C. overnight.
An appropriate number of cells are plated in four 96-well plates, one plate for “day 0” and three plates for days 1–3. Cells are treated with at least one compound of the present invention in varying concentrations. The negative control cells have normal media conditions, a duplicate set of wells is treated with the composition in which the compound is provided, but there is no added compound and the positive control cells are treated with the apoptosis inducer cisplatin (2 μM). All of the cells are transfected with a vector having a promoter that is responsive to apoptosis conditions. When apoptosis occurs, the promoter is turned on and the lactic dehydrogenase gene is activated and the enzyme protein is made and active. Activity is easily detected with a color change. After transfection, the plates are incubated at 37° C. overnight.
About 8 mls of warmed alpha MEM LDH lysis buffer (2% Triton X100) and about 8 mls of culture media (½ dilution) are combined. Two 96-well v-bottom plates are prepared, one labeled “lysis” and one labeled “supernatant.” To lyse the cells, about 200 μl Alpha MEM lysis buffer (diluted ½) is added to one test plate from which the supernatant has been removed and added to the plate labeled supernatant. After mixing, about 200 μl of lysed cells are transferred to the lysis plate. Both the lysis and supernatant plates are centrifuged at about 1600 rpm for about 10 min. After centrifugation, about 100 μl of both the supernatant or lysate is transferred to corresponding 96-well flat-bottomed plates.
The assay for cytotoxicity uses the Cytotoxicity Detection Kit (LDH) from Roche Diagnostics Corp. (Indianapolis, Ind.). Using the directionts provided, the dye solution is mixed and added each well of the lysate and supernatant plate and incubated for up to 20–25 min at 15–25° C. in the dark.

IL-6 [1] = assay: AGE (G-HSA)-induced inflammatory response determined by IL-6 ELISA in HAEC; assay type: cell-based, human; details: Homo sapiens; for activity at 10 µM: 24 h, Compds tested @ 10 uM, IL6, read-out: % IL6 production compare to AGE stimulation of IL6 (100%); for IC50: IL6, unit inferred, read-out: IC50 (AGE stimulation of IL6)
Procedure: Human aortic endothelial cells (HAEC, Clonetics) were cultured according to manufacturer in growth medium (Clonetics): basal medium containing human epidermal growth factor, hydrocortisone, vascular endothelial growth factor, heparin binding growth factor-B, long R3-insulin-like growth factor-1, ascorbic acid, gentamicin/amphotericin and 5% FBS. These cell were allowed to reach at least 90% confluency before subjected to experimental treatments. […] Tumor necrosis factor α was from R&D Systems.
All treatments, compound-added and controls were carried out in serum free media containing 0.2% albumin. Media from all conditions were collected and used for IL-6 ELISA.
(§1) IL-6 ELISA was carried out using human IL-6 DuoSet ELISA development kit as described by manufacturer (R&D Systems). Mouse anti-human Il-6 was used as the capture antibody (2 ug/ml) and biotinylated goat anti-human IL-6 (200 ng/ml) was used as the detection antibody. Culture media were incubated with capture antibody (in 96 well) for 2 h at room temperature. Wells were washed three times with wash buffer (0.05% tween-20 in phosphate buffered saline (PBS) pH 7.4) followed by incubation with detection antibody for 2 h at room temperature. Following three washes wells were incubated with Streptavidin-HRP for 20 min. Color development was read at 450 nm in a Microplate reader.

IL-6 [2] = assay: TNF-α-induced IL-6 production determined by IL-6 ELISA in HAEC; assay type: cell-based, human; details: HAEC; for activity at 10 µM / IC50: Homo sapiens, IL6; for activity at 10 µM: 24 h, Compds tested @ 10 uM, read-out: % IL6 production compare to TNF stimulation of IL6 (100%); for IC50: unit inferred, read-out: IC50 (TNF stimulation of IL6); for Inhibition of TNF-induced IL6 production: class of % of control IL6 production
Procedure: Human aortic endothelial cells (HAEC, Clonetics) were cultured according to manufacturer in growth medium (Clonetics): basal medium containing human epidermal growth factor, hydrocortisone, vascular endothelial growth factor, heparin binding growth factor-B, long R3-insulin-like growth factor-1, ascorbic acid, gentamicin/amphotericin and 5% FBS. These cell were allowed to reach at least 90% confluency before subjected to experimental treatments. Glycated human serum albumin (G-HSA) was from US Biologicals. Tumor necrosis factor α was from R&D Systems.
[…] All treatments, compound-added and controls were carried out in serum free media containing 0.2% albumin. Media from all conditions were collected and used for IL-6 ELISA.
as §1

[3] = system: Human aortic smooth muscle cells; assay: Smooth muscle cell proliferation assay (anti-proliferation assay, perlecan); assay type: cell-based
Procedure: Human aortic smooth muscle cells (Clonetics) were used. Cells were grown in basal medium containing 5% fetal bovine serum supplemented with growth factors, basic fibroblast growth factor, epidermal growth factor and insulin. […] The cells were then serum starved for 24 h to induce quiescence. Fresh growth medium containing no compound or 10 μM compound was then added and further incubated for 24 h. Cell number was determined by using a cell proliferation assay kit (Celltiter96 AQueous from Promega).

[4] = Homo sapiens, anti-proliferation assay (perlecan), read-out: Activity (note 1)
[5] = Homo sapiens, anti-proliferation assay (perlecan), read-out: Avg IC-50
[6] = Homo sapiens, read-out: Activity (note 1)
[7] = Homo sapiens, read-out: Avg IC-50

Row | Compound | activity at 10 µM (IL-6 [1]) [%] | activity at 10 µM (IL-6 [2]) [%] | IC50 [3, 4] [µM] | IC50 [3, 5] [µM] | other results
1 | COc1ccc(Nc2nc(NC3CC3)nc(N(C)C3CCN(C)CC3)n2)cc1Cl |  |  |  |  | cell death under Inflammation Data (cells): 15%
2 | CCN1CCCC1CNc1nc(NCCN(C)C)nc(Nc2ccc(OC)c(F)c2)n1 (centres unmarked) [Compound 68, N^2-[2-(dimethylamino)ethyl]-N^4-[(1-ethyl-2-pyrrolidinyl)methyl]-N^6-(3-fluoro-4-methoxyphenyl)-1,3,5-triazine-2,4,6-triamine] | 40 | 1 |  |  | IC50 (IL-6 [1]): 7.7 µM
3 | CCN1CCCC1CNc1nc(Nc2ccc(OC)c(F)c2)nc(N2CCN(CC(=O)N3CCCC3)CC2)n1 (centres unmarked) [Compound 69, N^2-[(1-ethyl-2-pyrrolidinyl)methyl]-N^4-(3-fluoro-4-methoxyphenyl)-N^6-{4-[2-oxo-2-(1-pyrrolidinyl)ethyl]-1-piperazinyl}-1,3,5-triazine-2,4-diamine] | 5 | 1 |  |  | 
4 | CCN1CCCC1CNc1nc(NCC2CCCN2CC)nc(Nc2ccc(OC)c(F)c2)n1 (centres unmarked) [Compound 70, N^2,N^4-bis[(1-ethyl-2-pyrrolidinyl)methyl]-N^6-(3-fluoro-4-methoxyphenyl)-1,3,5-triazine-2,4,6-triamine] | 35 | 1 |  |  | 
5 | CCN1CCCC1CNc1nc(NCCN2CCCCC2)nc(Nc2ccc(OC)c(F)c2)n1 (centres unmarked) [Compound 71, N^2-[(1-ethyl-2-pyrrolidinyl)methyl]-N^4-(3-fluoro-4-methoxyphenyl)-N^6-[2-(1-piperidinyl)ethyl]-1,3,5-triazine-2,4,6-triamine] | 29 | 1 |  |  | 
6 | CCN1CCCC1CNc1nc(Nc2ccc(OC)c(F)c2)nc(N2CCN(Cc3ccc4c(c3)OCO4)CC2)n1 (centres unmarked) [Compound 72, N^6-[4-(1,3-benzodioxol-5-ylmethyl)-1-piperazinyl]-N^2-[(1-ethyl-2-pyrrolidinyl)methyl]-N^4-(3-fluoro-4-methoxyphenyl)-1,3,5-triazine-2,4-diamine] | 31 | 5 |  |  | 
7 | CCN1CCCC1CNc1nc(Nc2ccc(OC)c(F)c2)nc(N2CCN(c3ccccn3)CC2)n1 (centres unmarked) [Compound 73, N^2-[(1-ethyl-2-pyrrolidinyl)methyl]-N^4-(3-fluoro-4-methoxyphenyl)-N^6-[4-(2-pyridinyl)-1-piperazinyl]-1,3,5-triazine-2,4-diamine] | 20 | 1 |  |  | IC50 (IL-6 [1]): 7.5 µM; IC50 (IL-6 [2]): 8.7 µM
8 | CCN1CCCC1CNc1nc(NCCCn2ccnc2)nc(Nc2ccc(OC)c(F)c2)n1 (centres unmarked) [Compound 75, N^2-[(1-ethyl-2-pyrrolidinyl)methyl]-N^4-(3-fluoro-4-methoxyphenyl)-N^6-[3-(1H-imidazol-1-yl)propyl]-1,3,5-triazine-2,4,6-triamine] | 46 | 43 |  |  | 
9 | CCN1CCCC1CNc1nc(Nc2ccc(OC)c(F)c2)nc(NC2CCCCCC2)n1 (centres unmarked) [Compound 95, N^2-cycloheptyl-N^4-[(1-ethyl-2-pyrrolidinyl)methyl]-N^6-(3-fluoro-4-methoxyphenyl)-1,3,5-triazine-2,4,6-triamine] | 1 | 5 | > 7 | 7.3 | IC50 (IL-6 [1]): 6.6 µM; Inhibition of TNF-induced IL6 production (IL-6 [2]): ++++ (between 0 and about 25% of IL6 production compared to cells that did not receive compound (or per cent of control IL6 production)); IC50 (IL-6 [2]): 2.8 µM
10 | COc1ccc(Nc2nc(NCCCN3CCCC3=O)nc(NC3CCCCCC3)n2)cc1F [Compound 99, 1-[3-({4-(cycloheptylamino)-6-[(3-fluoro-4-methoxyphenyl)amino]-1,3,5-triazin-2-yl}amino)propyl]-2-pyrrolidinone] | 8 | 39 |  |  | IC50 (IL-6 [1]): 6.04 µM
11 | COc1ccc(Nc2nc(NCC3CCCCC3)nc(N(C)C3CCN(C)CC3)n2)cc1Cl [Compound 103, N-(3-Chloro-4-methoxy-phenyl)-N′-cyclohexylmethyl-N″-methyl-N″-(1-methyl-piperidin-4-yl)-[1,3,5]triazine-2,4,6-triamine] |  |  | > 7 | ~7 | 
12 | CCCC(CCC)Nc1nc(Nc2ccc(OC)c(Cl)c2)nc(N(C)C2CCN(C)CC2)n1 [Compound 105, N-(3-Chloro-4-methoxy-phenyl)-N′-methyl-N′-(1-methyl-piperidin-4-yl)-N″-(1-propyl-butyl)-[1,3,5]triazine-2,4,6-triamine] |  |  | > 7 | ~7 | 
13 | COc1ccc(Nc2nc(Cl)nc(NC3CCCCCC3)n2)cc1F [Compound 127, 6-Chloro-N-cycloheheptyl-N′-(3-fluoro-4-methoxy-phenyl)-[1,3,5]triazine-2,4-diamine] |  | 48 | > 7 | 10 | 
14 | COc1ccc(Nc2nc(NC3CCCCCC3)nc(N(C)C3CCN(C)CC3)n2)cc1Cl [Compound 137, N-(3-Chloro-4-methoxy-phenyl)-N′-cycloheptyl-N″-methyl-N″-(1-methyl-piperidin-4-yl)-[1,3,5]triazine-2,4,6-triamine] |  |  | 3 to 7 | 4 to 5 | 
15 | CCN1CCC[C@H]1CNc1nc(Nc2ccc(OC)c(F)c2)nc(NC2CCCCCC2)n1 [Compound 139, N^2-cycloheptyl-N^4-((S)-1-ethyl-pyrrolidin-2-ylmethyl)-N^6-(3-fluoro-4-methoxyphenyl)-1,3,5-triazine-2,4,6-triamine] |  | 16.1 |  |  | IC50 [3, 6]: 3 to 7 µM; IC50 [3, 7]: 4 to 5 µM; Inhibition of TNF-induced IL6 production (IL-6 [2]): ++++ (between 0 and about 25% of IL6 production compared to cells that did not receive compound (or per cent of control IL6 production))
16 | CCN1CCC[C@@H]1CNc1nc(Nc2ccc(OC)c(F)c2)nc(NC2CCCCCC2)n1 [Compound 140, N^2-cycloheptyl-N^4-((R)-1-ethyl-pyrrolidin-2-ylmethyl)-N^6-(3-fluoro-4-methoxyphenyl)-1,3,5-triazine-2,4,6-triamine] |  | 12.6 |  |  | IC50 [3, 6]: 3 to 7 µM; IC50 [3, 7]: 4 to 5 µM; Inhibition of TNF-induced IL6 production (IL-6 [2]): ++++ (between 0 and about 25% of IL6 production compared to cells that did not receive compound (or per cent of control IL6 production))
17 | CCN(CC)c1ccc(Nc2nc(NCC3CCCN3CC)nc(NC3CCCCCC3)n2)cc1Cl (centres unmarked) [Compound 163] |  |  |  |  | IC50 ([3]; anti-proliferation assay (perlecan), read-out: Activity (note 1)): > 7 µM; IC50 ([3]; anti-proliferation assay (perlecan), read-out: Avg IC-50): 8 to 10 µM
18 | COc1ccc(Nc2nc(NC3CCCCCC3)nc(N(C)C3CCN(C)CC3)n2)cc1Br [Compound 170] |  |  | > 7 | 8 to 9 | 
19 | CN1CCC(N(C)c2nc(Nc3ccc4ccccc4c3)nc(NC3CCCCCC3)n2)CC1 [N^2-cycloheptyl-N^4-methyl-N^4-(1-methyl-piperidin-4-yl)-N^6-naphthalen-2-yl-1,3,5-triazine-2,4,6-triamine] |  |  |  |  | activity in anti-proliferation assay (Perlecan) ([3]; same activity scale used in Table 3, in words): high activity
